Data set [1] relates to chick retinal cells including neurons and glial cells. The arrangement: method as in PMID 18414992. Conditions: cited from earlier work; for The Percentage of Dead Cells in Total Cells: 2 days, per well.
The test system of data set [2] is apoptotic cells in the retinal outer nuclear layer of RCS rats. Kind of data set: Intravitreous injection of NK-5962 in RCS rats, TUNEL assay of retinal outer nuclear layer. Type of data set: in vivo, rat. The method, then: NK-5962 powder was dissolved in distilled deionized water at a concentration of 8.2 μg/mL (16 μM). This original stock solution of NK-5962 (8.2 μg/mL) was diluted with saline (0.9% sodium chloride) to make a series of 10-fold dilutions from 8.2 × 10^−4 to 8.2 μg/mL. Twenty male pink-eyed RCS rats (RCS/Jcl-rdy/rdy, p-, CLEA Japan, Inc., Tokyo, Japan) at the age of 4 weeks were assigned to 5 groups (n = 4) that received NK-5962 at 5 different concentrations. Intravitreous injection was performed twice at the age of 4 and 5 weeks (Figure 4A). This study was approved by the Animal Care and Use Committee at the Okayama University (Identifier OKU-2013441) and based on the Animal Welfare and Management Act in Japan.
RCS rats were anesthetized by intraperitoneal injection of ketamine (87 mg/kg body weight, Daiichi Sankyo, Tokyo, Japan) and xylasine (13 mg/kg, Bayer Japan, Osaka, Japan). Mydriasis was induced by 0.5% tropicamide and 0.5% phenylephrine instillation (Santen Pharmaceutical, Osaka, Japan) and corneal anesthesia was further obtained with 0.4% oxybuprokaine instillation (Santen Pharmaceutical, Osaka, Japan). Under a dissecting microscope, 3 μL of NK-5962 solution and saline (0.9% sodium chloride) was injected into the vitreous of the left eye and the right eye, respectively, with a 30-gauge needle attached to a Hamilton syringe (50 μL 1705 LT SYR; Hamilton Company, Reno, NV, USA). The needle was inserted almost at a perpendicular angle and at 1mm from the corneoscleral limbus to avoid the damage to the lens. Antibiotic (0.5% moxifloxacin, Novartis Pharma Japan, Tokyo, Japan) eye drops were instilled for both eyes. Each rat was housed in a standard rat cage in the 12 h light and dark cycle at the Animal Center of Okayama University. In a separate experiment, 3 rats were placed and maintained in constant darkness after intravitreous injection of NK-5962 at a concentration of 8.2 μg/mL (16 μM).
Apoptotic cells were detected by terminal deoxynucleotidyl transferase-mediated fluorescein-conjugated dUTP nick-end-labeling (TUNEL) assay, according to the manufacturer’s instructions (In Situ Cell Death Detection Kit, Roche Diagnostics, Mannheim, Germany). The images at the constant exposure time were captured by an Olympus FSX100 microscope that was equipped with the fluorescent filter cube U-MWIBA3. Five photographs in each of 5 retinal vertical sections per eye were taken and an entire frame (220 × 165 μm) of each photograph with ×40 NA0.95 objective lens was used for measurements. The number of TUNEL-positive cells in the outer nuclear layer at each retinal site (a, b, c and d, Figure 4B) was counted in each frame of photographs. The number of TUNEL-positive cells per 1,000 μm^2 of the outer nuclear layer was calculated for comparison by two-factor ANOVA. […]

Data set [3] is described as follows: Eye irritation test. The note with it: in vivo.
A short description of data set [4]: Eye ball concentration after intravitreous injection. It counts as in vivo, rat. Conditions: intravitreous 16 µM (3 µL). The method, then: The NK-5962 solutions at 16 μM concentration in phosphate-buffered saline and at 39.7 μM concentration in 0.5% methyl cellulose 400 solution (FUJIFILM Wako Chemicals, Osaka, Japan) were prepared as eye drops and topically applied to both eyes of two Wistar rats assigned for each concentration. The eyes were enucleated 30 min after topical application, washed twice in saline, weighed, and frozen for NK-5962 measurement. In parallel, 3 μL of the NK-5962 solution at 16 μM concentration in phosphate-buffered saline was injected into the vitreous of both eyes of 2 Wistar rats. The eyes in each rat were enucleated 5 min and 2 h after the intravitreous injection, washed twice in saline, weighed, and then frozen. Both eyes of one rat served as the negative control. This study was approved by the Animal Care and Use Committee at Okayama University (Identifier OKU-2016267, OKU-2019196).
Liquid chromatography and tandem mass spectrometry instrument (LC-MS8060) equipped with Shimadzu Nexera series LC system (Shimadzu, Kyoto, Japan) were used. All compounds were analyzed in multi-reaction monitoring mode under electron spray ionization conditions. The analytical column used was a […] C18 MGIII (3 μm × 2.0 mmID × 35 mm; OSAKA SODA, Osaka, Japan) at 50 °C. The gradient mobile phase consisted of 0.1% formic acid in water (mobile phase A) and 0.1% formic acid in acetonitrile (mobile phase B) at a total flow rate of 1 mL/minute. The initial mobile phase composition was 10% B, which was held constant for 0.2 min, increased in a linear fashion to 90% B over 1 min, then held constant for 0.8 min, and then finally brought back to the initial condition of 10% B over 0.01 min and re-equilibrated for 1 min. The transitions (precursor ion > product ion) of NK-5962 and IS (methyl testosterone) are 433.2 > 279.2 and 303.1 > 109.1 (positive), respectively.

A short description of data set [5]: Solubility assay in JP 1st and 2nd fluid. Type of data set: physicochemical. The method, then: The Japanese Pharmacopeia (JP) 1st fluid (pH 1.2) and JP 2nd fluid (pH 6.8) for dissolution testing were used for solubility measurements. The solution of a test compound was prepared by diluting 10 mM NK-5962 in 2 μL DMSO stock solution with 165 μL of JP 1st or 2nd fluid and then mixed at 37 °C for 4 h by rotation at 1000 rpm. After loading the mixed solution into 96-well MultiScreen Filter Plates (product number MSHVN4510, 0.45 μm hydrophilic PVDF membrane; Millipore, Bedford, MA, USA), filtration was performed by centrifugation. The filtrates were mixed with acetonitrile and analyzed by high-performance liquid chromatography-UV detection (HPLC-UV, 254 nm) or by liquid chromatography and tandem mass spectrometry (LC-MS/MS). Solubility was calculated by comparing the peak area of the filtrate mixture with that of a 100 μM standard solution.

The nature of data set [6]: Acute systemic toxicity test. The note with it: in vivo.

pEC50: −log10 of the molar value. “And” between values parts separate entries of the source, which are not always exact repeats. Equal values may be shown once. Read-outs that look alike come from different tables or passages of the source.

As for `CCCCN(CCCC)c1ccc(C=Cc2sc3ccccc3[n+]2CC(=O)O)cc1.[Br-]` [NK-5962, 2-[2-[4-(dibutylamino)phenyl]ethenyl]-3-carboxymethylbenzothiazolium bromide], in data set [1] (2 days culture, dark or light condition, P = 0.0183 two-factor ANOVA), the “percentage of dead cells, dependence on concentration” value is on record as “significantly smaller at higher concentrations”. Further, the “The Percentage of Dead Cells in Total Cells” value is 1.3% and 0% and 0.5% and 0.3% and 1.9% and 3.2% and 3.0% in data set [1] (NK-5962 1.6 × 10^−5 M, light exposure yes (230 lux 9 h daily)); 2.5% and 0.4% and 1.3% and 2.4% and 0.8% and 1.7% and 1.9% and 1.4% in data set [1] (NK-5962 1.6 × 10^−6 M, light exposure no); 5.1% and 2.0% and 0.3% and 1.2% and 0% and 2.3% and 2.2% and 1.3% in data set [1] (NK-5962 1.6 × 10^−7 M, light exposure no). For the same compound, the “percent ratio of the number of TUNEL-positive cells versus saline” value in data set [2] (1.6 μM NK-5962 intravitreous) was found to be 61%; in data set [2] (16 μM NK-5962 intravitreous), 56%. For the same compound, the pEC50 is 5.52 in data set [2] (16 μM × 3 μL / (3 + 13) μL, rat vitreous cavity estimated 13 μL, read-out: in vivo EC50 as intravitreous concentration) and approximately 4.80 in data set [2] (Rattus norvegicus, 3 μL intravitreous injection, read-out: EC50 (50% effective concentration), concentration of injected solution). Besides, the “toxicity in the eye irritation test” value in data set [3] was “not toxic”. Further, the concentration at 0.083 h in data set [4] (Wistar, rat, eye ball, other: intravitreous injection, 0.083 h (5 min), read-out: Mean Eye Ball Concentration) turned out to be 7.25 nM; in data set [4] (Wistar, rat, eye ball, other: intravitreous injection, 0.083 h, single eye, read-out: Eye Ball Concentration), 9.23 nM. Further, the concentration at 2 h in data set [4] (Wistar, rat, eye ball, other: intravitreous injection, 2 h, single eye, read-out: Eye Ball Concentration) turned out to be 1.19 nM; in data set [4] (Wistar, rat, eye ball, other: intravitreous injection, 2 h, read-out: Mean Eye Ball Concentration), 1.49 nM; in data set [4] (0.083 h, single eye, read-out: Eye Ball Concentration), 5.27 nM; in data set [4] (2 h, single eye, read-out: Eye Ball Concentration), 1.78 nM. The solubility at 4 h was 79 µM in data set [5] (JP 1st fluid pH 1.2, 37 °C, read-out: Solubility JP1 (pH 1.2)) and 0.2 µM in data set [5] (JP 2nd fluid pH 6.8, 37 °C, read-out: Solubility JP2 (pH 6.8)). Also, the “Solubility JP2 (pH 6.8)” value in data set [5] (JP 2nd fluid pH 6.8, 37 °C, 4 h) is given as “low”. Moreover, the “acute systemic toxicity test” value in data set [6] is listed as “not toxic”.

The values above are taken from publication PMC8235661, “Photoelectric Dye, NK-5962, as a Potential Drug for Preventing Retinal Neurons from Apoptosis: Pharmacokinetic Studies Based on Review of the Evidence” (Life, 2021).
